Measurements as given in patent publication US8895549B2, “Aminoalcohol substituted 2,3-dihydroimidazo[1,2-c]quinazoline derivatives useful for treating hyper-proliferative disorders and diseases associated with angiogenesis” (Bayer Intellectual Property GmbH, priority 2010, dated 2014).
Where a name gives a salt, the structure may show the parent alone.

What was measured:
[1] = target: PI3Kα (complex of human p110α and human p85α) (Homo sapiens (Human), UniProt P42336); experiment: PI3Kα kinase assay (HTRF-based PI3K inhibition assay); format: biochemical; details: for inhibition at 0.93 µM: 0.93 μM compound, read-out: PI3K alpha average % Inhibition at 0.93 μM; for IC50: 10 μM ATP, 10 μM PIP2, 20 min at 22° C., read-out: average IC50 in the PI3K alpha biochemical assay;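 for all read-outs here: PIP3 product detected by HTRF, reading resonance energy transfer from Europium-labeled anti-GST antibody to Streptavidin-APC, as displacement of biotinylated PIP3 tracer from the GST-PH domain complex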
Source text: (§1) Determination of % Inhibition and IC50 Values of Compounds in PI3Kα Kinase Assay
PI3Kα inhibitory activity of compounds of the present invention was quantified employing the HTRF-based PI3K inhibition assay as described below.
(§2) As reagents for the kinase reaction itself and the quantification of the reaction product, the PI3-Kinase HTRF Assay kit from Millipore (#33-017) was used. With this kit the phosphatidylinositol 3,4,5-trisphosphate (PIP3) generated in the kinase reaction is detected by displacement of a biotinylated ligand from an energy transfer complex consisting of a Europium-labeled anti-GST monoclonal antibody, a GST-tagged PH domain, biotinylated PIP3 and Streptavidin-Allophycocyanin (APC).
For the assay 50 nL of a 80-fold concentrated solution of the test compound in DMSO was pipetted into a black low volume 384-well microtiter plate (Greiner Bio-One, Frickenhausen, Germany), 3 μL of a solution of PI3Kα and phosphatidylinositol-4,5-bisphosphate (PIP2, 13.8 μM=> final conc. in 4 μl reaction volume=10 μM) in 1× reaction buffer (exact composition not disclosed by the vendor) were added and the mixture was incubated for 15 min at 22° C. to allow pre-binding of the test compounds to the enzyme before the start of the kinase reaction. The amount of PI3Kα was chosen to have the enzyme reaction in the linear range and depended on the activity of the individual lot, typical concentrations in assay were in the range of 90 ng/mL. Then the kinase reaction was started by the addition of 1 μL of a solution of adenosine triphosphate (ATP, 40 μM=> final conc. in the 4 μL assay volume is 10 μM) in reaction buffer and the resulting mixture was incubated for a reaction time of 20 min at 22° C.
The reaction was stopped by the addition of 1 μL of an stop solution (containing the biotinylated PIP3 used as a tracer), then 1 μL detection mix (containing a Europium-labeled anti-GST monoclonal antibody, a GST-tagged PH domain, and Streptavidin-Allophycocyanin) was added and resulting mixture was incubated 3 h at 22° C. to allow the formation of complexes between the detection reagents and either the PIP3 generated in the kinase reaction, or the biotinylated PIP3 added with the stop solution. Subsequently, the amount of energy transfer complex consisting of a Europium-labeled anti-GST monoclonal antibody, a GST-tagged PH domain, biotinylated PIP3 and Streptavidin-Allophycocyanin (APC) was evaluated by measurement of the resonance energy transfer from the Europium-labeled anti-GST monoclonal antibody to the Streptavidin-Allophycocyanin. Therefore, the fluorescence emissions at 620 nm and 665 nm after excitation at 350 nm were measured using a TR-FRET reader, e.g., a Pherastar (BMG Labtechnologies, Offenburg, Germany) or a Viewlux (Perkin-Elmer). The ratio of the emissions at 665 nm and at 622 nm was taken as the measure for the amount of biotinylated PIP3 bound to the GST-tagged PH domain, which is negatively correlated with the amount of PIP3 generated.

[2] = target: PI3Kβ (complex of human p110β and human p85α) (Homo sapiens (Human), UniProt P42338); experiment: PI3Kβ kinase assay (HTRF-based PI3K inhibition assay); format: biochemical; details: for inhibition at 0.93 µM: 0.93 μM compound, read-out: PI3K beta average % Inhibition at 0.93 μM; for IC50: 10 μM ATP, 10 μM PIP2, 20 min at 22° C., read-out: average IC50 in the PI3K beta biochemical assay; for PI3K beta average IC50/PI3K alpha average IC50: ratio of beta IC50 to alpha IC50;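 for all read-outs here: Kinase-made PIP3 detected by HTRF, displacing biotinylated PIP3 tracer from a complex of Europium anti-GST antibody, GST-fused PH domain and Streptavidin-APC, read as Europium-to-APC energy transfer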
PI3Kβ (complex of human p110β and human p85α), sequence (P42338 whole entry, the tested form may be a part): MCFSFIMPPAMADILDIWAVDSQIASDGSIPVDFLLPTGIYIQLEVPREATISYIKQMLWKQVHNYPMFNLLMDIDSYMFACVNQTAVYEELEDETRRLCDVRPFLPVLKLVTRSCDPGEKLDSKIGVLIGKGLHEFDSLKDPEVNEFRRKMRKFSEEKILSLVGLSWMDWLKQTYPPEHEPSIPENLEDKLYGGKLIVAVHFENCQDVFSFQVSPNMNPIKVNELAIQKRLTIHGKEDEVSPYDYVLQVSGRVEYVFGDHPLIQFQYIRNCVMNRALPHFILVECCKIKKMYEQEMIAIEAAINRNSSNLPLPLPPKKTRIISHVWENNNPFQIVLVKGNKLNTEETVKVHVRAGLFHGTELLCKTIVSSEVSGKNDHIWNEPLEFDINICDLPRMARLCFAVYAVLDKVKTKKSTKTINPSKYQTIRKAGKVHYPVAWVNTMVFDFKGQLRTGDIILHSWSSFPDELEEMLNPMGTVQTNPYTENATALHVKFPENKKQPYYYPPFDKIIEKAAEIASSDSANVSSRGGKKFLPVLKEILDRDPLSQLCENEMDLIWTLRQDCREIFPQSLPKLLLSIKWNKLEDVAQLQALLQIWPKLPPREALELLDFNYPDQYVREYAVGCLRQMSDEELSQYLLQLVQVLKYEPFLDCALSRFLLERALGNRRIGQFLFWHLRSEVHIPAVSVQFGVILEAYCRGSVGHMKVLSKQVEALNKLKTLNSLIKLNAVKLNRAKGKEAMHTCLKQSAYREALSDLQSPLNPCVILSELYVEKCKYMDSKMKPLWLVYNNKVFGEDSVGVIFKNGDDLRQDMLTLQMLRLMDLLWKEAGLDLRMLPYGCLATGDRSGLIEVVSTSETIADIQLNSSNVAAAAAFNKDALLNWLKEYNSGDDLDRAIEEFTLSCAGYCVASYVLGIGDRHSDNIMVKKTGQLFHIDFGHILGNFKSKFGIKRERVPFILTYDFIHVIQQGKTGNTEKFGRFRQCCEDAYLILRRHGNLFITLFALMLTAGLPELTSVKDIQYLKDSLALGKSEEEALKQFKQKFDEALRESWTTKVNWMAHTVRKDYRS
PI3Kβ (complex of human p110β and human p85α), sequence (P27986 whole entry partner, the tested form may be a part): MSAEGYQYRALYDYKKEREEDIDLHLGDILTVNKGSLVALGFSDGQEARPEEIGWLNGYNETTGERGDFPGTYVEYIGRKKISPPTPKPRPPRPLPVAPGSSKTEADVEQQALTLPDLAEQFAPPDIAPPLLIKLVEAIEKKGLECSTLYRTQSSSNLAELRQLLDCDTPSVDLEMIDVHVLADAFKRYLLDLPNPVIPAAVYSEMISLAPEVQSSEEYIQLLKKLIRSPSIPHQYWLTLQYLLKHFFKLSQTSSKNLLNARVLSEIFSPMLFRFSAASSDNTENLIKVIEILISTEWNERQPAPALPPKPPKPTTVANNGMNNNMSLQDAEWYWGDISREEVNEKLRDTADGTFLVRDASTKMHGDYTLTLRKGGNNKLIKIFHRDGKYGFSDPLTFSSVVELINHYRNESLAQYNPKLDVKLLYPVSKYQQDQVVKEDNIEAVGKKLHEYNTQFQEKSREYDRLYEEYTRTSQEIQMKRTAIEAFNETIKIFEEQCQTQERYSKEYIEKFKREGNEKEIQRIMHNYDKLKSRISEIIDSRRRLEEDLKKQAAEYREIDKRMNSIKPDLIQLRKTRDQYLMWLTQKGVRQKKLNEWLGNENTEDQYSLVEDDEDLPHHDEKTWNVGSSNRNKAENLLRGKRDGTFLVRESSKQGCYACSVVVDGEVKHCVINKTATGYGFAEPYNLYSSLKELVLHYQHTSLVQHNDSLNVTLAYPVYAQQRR
Source text: as §1
PI3Kα inhibitory activity of compounds of the present invention was quantified employing the HTRF based PI3K inhibition assay as described below.
as §2
For the assay 50 nL of a 80-fold concentrated solution of the test compound in DMSO was pipetted into a black low volume 384-well microtiter plate (Greiner Bio-One, Frickenhausen, Germany), 3 μl of a solution of PI3Kβ and phosphatidylinositol-4,5-bisphosphate (PIP2, 13.8 μM=> final conc. in 4 μl reaction volume=10 μM) in 1× reaction buffer (exact composition not disclosed by the vendor) were added and the mixture was incubated for 15 min at 22° C. to allow pre-binding of the test compounds to the enzyme before the start of the kinase reaction. The amount of PI3Kβ was chosen to have the enzyme reaction in the linear range and depended on the activity of the individual lot, typical concentrations in assay were in the range of 120 ng/mL. Then the kinase reaction was started by the addition of 1 μL of a solution of adenosine triphosphate (ATP, 40 μM=> final conc. in the 4 μl assay volume is 10 μM) in reaction buffer and the resulting mixture was incubated for a reaction time of 20 min at 22° C.
The reaction was stopped by the addition of 1 μL of an stop solution (containing the biotinylated PIP3 used as a tracer). Then 1 μL detection mix (containing a Europium-labeled anti-GST monoclonal antibody, a GST-tagged PH domain, and Streptavidin-Allophycocyanin) was added and resulting mixture was incubated for 3 h at 22° C. to allow the formation of complexes between the detection reagents and either the PIP3 generated in the kinase reaction, or the biotinylated PIP3 added with the stop solution. Subsequently the amount of energy transfer complex consisting of a Europium-labeled anti-GST monoclonal antibody, a GST-tagged PH domain, biotinylated PIP3 and Streptavidin-Allophycocyanin (APC) was evaluated by measurement of the resonance energy transfer from the Europium-labeled anti-GST monoclonal antibody to the Streptavidin-Allophycocyanin. Therefore, the fluorescence emissions at 620 nm and 665 nm after excitation at 350 nm were measured using a TR-FRET reader, e.g., a Pherastar (BMG Labtechnologies, Offenburg, Germany) or a Viewlux (Perkin-Elmer). The ratio of the emissions at 665 nm and at 622 nm were taken as the measure for the amount of biotinylated PIP3 bound to the GST-tagged PH domain, which is negatively correlated with the amount of PIP3 generated.

PI3Kα (complex of human p110α and human p85α), sequence (P42336 whole entry, the tested form may be a part): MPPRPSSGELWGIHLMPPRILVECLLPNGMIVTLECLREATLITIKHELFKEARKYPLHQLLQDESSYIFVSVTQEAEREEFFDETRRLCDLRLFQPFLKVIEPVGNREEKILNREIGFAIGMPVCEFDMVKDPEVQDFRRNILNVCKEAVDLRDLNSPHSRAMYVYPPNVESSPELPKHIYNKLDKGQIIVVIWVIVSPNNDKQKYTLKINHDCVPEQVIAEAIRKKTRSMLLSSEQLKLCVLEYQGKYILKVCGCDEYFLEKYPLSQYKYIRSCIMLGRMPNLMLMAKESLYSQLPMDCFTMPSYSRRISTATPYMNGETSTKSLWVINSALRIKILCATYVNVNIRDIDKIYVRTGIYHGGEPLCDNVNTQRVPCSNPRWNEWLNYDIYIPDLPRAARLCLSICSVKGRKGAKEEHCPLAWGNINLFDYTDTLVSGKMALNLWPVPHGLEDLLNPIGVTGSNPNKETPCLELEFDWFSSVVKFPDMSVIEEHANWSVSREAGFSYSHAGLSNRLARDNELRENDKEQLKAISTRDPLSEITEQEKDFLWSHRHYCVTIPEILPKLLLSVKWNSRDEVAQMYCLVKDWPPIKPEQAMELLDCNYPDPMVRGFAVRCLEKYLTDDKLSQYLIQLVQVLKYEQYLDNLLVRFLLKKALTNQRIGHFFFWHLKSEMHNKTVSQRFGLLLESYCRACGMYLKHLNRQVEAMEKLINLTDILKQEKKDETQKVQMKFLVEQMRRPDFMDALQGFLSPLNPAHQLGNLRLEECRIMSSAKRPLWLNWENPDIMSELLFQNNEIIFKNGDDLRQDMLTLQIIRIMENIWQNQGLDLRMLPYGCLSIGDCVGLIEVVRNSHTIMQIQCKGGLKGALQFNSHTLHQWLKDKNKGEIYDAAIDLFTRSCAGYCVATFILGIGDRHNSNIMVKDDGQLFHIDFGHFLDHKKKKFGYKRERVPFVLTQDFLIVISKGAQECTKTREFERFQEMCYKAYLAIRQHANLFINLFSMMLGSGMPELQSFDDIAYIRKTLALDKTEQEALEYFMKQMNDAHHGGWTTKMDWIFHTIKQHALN
PI3Kα (complex of human p110α and human p85α), sequence (P27986 whole entry partner, the tested form may be a part): as the sequence (P27986 whole entry partner, the tested form may be a part) above

SMILES	inhibition at 0.93 µM [1]	IC50 [1]	inhibition at 0.93 µM [2]	IC50 [2]	PI3K beta average IC50/PI3K alpha average IC50 [2]
COc1c(OC[C@H](O)CN2C[C@@H](C)O[C@@H](C)C2)ccc2c1N=C(NC(=O)c1cnc(N)nc1)N1CCN=C21 [Example 27, 2-amino-N-[8-({(2R)-3-[(2R,6S)-2,6-dimethylmorpholin-4-yl]-2-hydroxypropyl}oxy)-7-methoxy-2,3-dihydroimidazo[1,2-c]quinazolin-5-yl]pyrimidine-5-carboxamide]	97.9%	< 10 nM	102%	10 to 50 nM	5.52
COc1c(OC[C@H](O)CN2CCCC2)ccc2c1N=C(NC(=O)c1cnco1)N1CCN=C21 [Example 40, N-(8-{[(2R)-2-Hydroxy-3-(pyrrolidin-1-yl)propyl]oxy}-7-methoxy-2,3-dihydroimidazo[1,2-c]quinazolin-5-yl)-1,3-oxazole-5-carboxamide]	88%	> 50 nM	72.7%	> 50 nM	
COc1c(OC[C@H](O)CN2CC3CCC(C2)O3)ccc2c1N=C(NC(=O)c1cnc(N)nc1)N1CCN=C21 [Example 28, 2-Amino-N-(8-{[(2R)-2-hydroxy-3-(8-oxa-3-azabicyclo[3.2.1]oct-3-yl)propyl]oxy}-7-methoxy-2,3-dihydroimidazo[1,2-c]quinazolin-5-yl)pyrimidine-5-carboxamide dihydrochloride]	102%	< 10 nM	102%	< 10 nM	
COc1c(OC[C@H](O)CN(C(C)C)C(C)C)ccc2c1N=C(NC(=O)c1cccnc1)N1CCN=C21 [Example 12, N-(8-{[(2R)-3-(dipropan-2-ylamino)-2-hydroxypropyl]oxy}-7-methoxy-2,3-dihydroimidazo[1,2-c]quinazolin-5-yl)pyridine-3-carboxamide]	104%	< 10 nM	115%	10 to 50 nM	4.74
COc1c(OC[C@H](O)CN2CCOCC2)ccc2c1N=C(NC(=O)c1ccc(N)nc1C)N1CCN=C21 [Example 23, 6-Amino-N-(8-{[(2R)-2-hydroxy-3-(morpholin-4-yl)propyl]oxy}-7-methoxy-2,3-dihydroimidazo[1,2-c]quinazolin-5-yl)-2-methylpyridine-3-carboxamide]	105%	< 10 nM	119%	10 to 50 nM	7.30
COc1c(OCC(O)CN2CCOCC2)ccc2c1N=C(NC(=O)c1cnc(N)nc1)N1CCN=C21 (stereo not shown) [Example 25, 2-Amino-N-{8-[2-hydroxy-3-(morpholin-4-yl)propoxy]-7-methoxy-2,3-dihydroimidazo[1,2-c]quinazolin-5-yl}pyrimidine-5-carboxamide]	92.7%	< 10 nM	93.3%	< 10 nM	8.30
